Here are results for one compound from US8088951B2, “Epigenetic mechanisms re-establish access to long-term memory after neuronal loss” (Massachusetts Institute of Technology, priority 2006, dated 2012).

Assay [1] relates to CK-p25 Tg mice. The assay can be described thus: Recovery of long-term spatial memories in CK-p25 Tg mice (water maze reminder-training). The format is in vivo. The following applies: daily injection after 6 weeks p25 expression. The text has this: Recovery of spatial memories upon environmental enrichment and sodiumbutyrate injection. CK-p25 Tg mice in which p25 expression was repressed and control mice were trained in the water maze paradigm until all mice reliably found the hidden platform. Afterwards all mice were returned to their home cages for 4 weeks to allow the consolidation of hippocampus independent long-term memories. Afterwards p25 expression was induced for 6 weeks, followed by p25 repression. […] To measure the retrieval of long-term memory mice were instead exposed to only 2 reminder-training sessions on a single day. […] The recovery of spatial memories upon environmental enrichment was evaluated by a similar experiment, except that after 6 weeks of p25 expression mice were either subjected to EE or returned to their home cages for 4 weeks. […] To evaluate the recovery of spatial memories upon SB injection, a similar experiment was performed as described above, but instead of EE, one group of CK-p25 Tg mice (n=10) received daily injection of SB, whereas the other group was injected with vehicle (n=10).

Assay [2] relates to CK-p25 Tg mice. The assay can be described thus: Fear conditioning learning in CK-p25 Tg mice after neurodegeneration. The format is in vivo. The following applies: 6 weeks p25 induction, then daily 1.2 g/kg for 4 weeks, vs saline, P=0.009. From the text: Learning tests: All behavioral testing is described in Fischer et al. (3).
Reinstatement of learning behavior through inhibition of HDAC. Whether sustained inhibition of HDACs would reinstate learning behavior and recover access to long-term memories in CK-p25 Tg mice that had developed synaptic and neuronal loss was investigated. P25 was induced in 11 month old CK-p25 Tg mice for 6 weeks. Afterwards p25 expression was repressed and one group of CK-p25 Tg mice was subjected to daily sodiumbutyrate (SB) injection (1.2 g/kg) for 4 weeks (n=9), whereas the other group received saline injection (n=9). […] To this end p25 expression was induced in 11-month old CK-p25 mice for 6 weeks, before one group was injected daily for 4 weeks with SB whereas the control group received saline injection (FIG. 4a).

Entries after “also recorded” stand apart in the source; their conditions may differ.

For the compound `CCCC(=O)[O-].[Na+]` [SB, sodiumbutyrate], the “recovery of long-term spatial memories” value with CK-p25 Tg mice [1] is given as “leads to the recovery of long-term spatial memories; also recorded: spatial long-term memories recover after neuronal loss”. Also, the “associative learning (freezing behavior)” value in the assay on CK-p25 Tg mice [2] is “significantly enhanced”.
